Source: PubChem BioAssay (NCI)
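Dose response: 5 concentrations. Exposure: 48 h. Format: 96-well plates. Endpoint: linear interpolation; highest concentration if not reached. Abbreviation: GI50, concentration required for 50% inhibition of growth. Definition used: TGI = concentration required for complete inhibition of growth.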

Experiments:
Assay in all cases: NCI anticancer screen, dose series, 48 h
[1] = system: HT29 colon
[2] = system: LOX IMVI melanoma
[3] = system: MDA-MB-435
[4] = system: TK-10 renal
[5] = system: UACC-62 melanoma
[6] = system: HL-60(TB) leukemia
[7] = system: HOP-62 NSCLC
[8] = system: DU-145 prostate
[9] = system: 786-0 renal
[10] = system: U251 CNS
[11] = system: M14 melanoma
[12] = system: MOLT-4 leukemia
[13] = system: SR leukemia
[14] = system: HS 578T breast
[15] = system: IGROV1 ovarian
[16] = system: K-562 leukemia
[17] = system: MCF7 breast
[18] = system: PC-3 prostate
[19] = system: SF-539 CNS
[20] = system: KM12 colon
[21] = system: SK-MEL-28 melanoma
[22] = system: RXF 393 renal
[23] = system: A549 NSCLC
[24] = system: NCI-H226 lung
[25] = system: OVCAR-4 ovarian
[26] = system: COLO 205 colon
[27] = system: SNB-19 CNS
[28] = system: HCT-15 colon
[29] = system: A498 renal
[30] = system: SW-620 colon
[31] = system: T-47D breast
[32] = system: NCI-H460 lung
[33] = system: OVCAR-5 ovarian
[34] = system: MDA-MB-231 breast
[35] = system: RPMI-8226 leukemia
[36] = system: BT-549 breast
[37] = system: UO-31 renal
[38] = system: EKVX NSCLC
[39] = system: OVCAR-8 ovarian
[40] = system: SF-295 CNS
[41] = system: CAKI-1 renal
[42] = system: UACC-257 melanoma
[43] = system: CCRF-CEM leukemia
[44] = system: SK-MEL-2 melanoma
[45] = system: NCI-H23 lung
[46] = system: OVCAR-3 ovarian
[47] = system: HOP-92 NSCLC
[48] = system: SK-MEL-5 melanoma
[49] = system: NCI/ADR-RES ovarian
[50] = system: SN12C renal
[51] = system: MALME-3M melanoma
[52] = system: SK-OV-3 ovarian
[53] = system: NCI-H522 lung
[54] = system: ACHN renal
[55] = system: HCC-2998 colon
[56] = system: HCT-116 colon
[57] = system: SF-268 CNS

COc1ccc2c(c1)C(=Nc1ccc(F)c(F)c1F)c1c-2c(Nc2ccc(F)c(F)c2F)nc2ccccc12
GI50 [1]: 36.6 µM | TGI [1]: > 100 µM | GI50 [2]: > 60.5 µM | TGI [2]: > 100 µM | GI50 [3]: > 70.7 µM | TGI [3]: > 100 µM | GI50 [4]: 25.4 µM | TGI [4]: > 90.9 µM | GI50 [5]: 23.8 µM | TGI [5]: > 55.1 µM | TGI [6]: 0.0392 µM | GI50 [7]: 14.6 µM | TGI [7]: 43.7 µM | GI50 [8]: 49.8 µM | TGI [8]: > 100 µM | GI50 [9]: 27.3 µM | TGI [9]: > 68.7 µM | GI50 [10]: 28.2 µM | TGI [10]: > 64.3 µM | GI50 [11]: 27.7 µM | TGI [11]: > 100 µM | GI50 [12]: 24.2 µM | TGI [12]: > 100 µM | TGI [13]: 1.41 µM | GI50 [14]: 22 µM | TGI [14]: > 100 µM | GI50 [15]: 15.9 µM | TGI [15]: > 72.9 µM | GI50 [16]: 29.5 µM | TGI [16]: > 100 µM | GI50 [17]: 44 µM | TGI [17]: > 100 µM | GI50 [18]: > 56.7 µM | TGI [18]: > 100 µM | GI50 [19]: 37.7 µM | TGI [19]: > 83.6 µM | GI50 [20]: > 71.1 µM | TGI [20]: > 100 µM | GI50 [21]: 28 µM | TGI [21]: > 100 µM | GI50 [22]: 17.2 µM | TGI [22]: 56.5 µM | GI50 [23]: > 59.3 µM | TGI [23]: > 100 µM | GI50 [24]: > 44.4 µM | TGI [24]: > 84.1 µM | GI50 [25]: 27.8 µM | TGI [25]: > 55.6 µM | GI50 [26]: 38.8 µM | TGI [26]: > 100 µM | GI50 [27]: 33.1 µM | TGI [27]: > 100 µM | GI50 [28]: 49 µM | TGI [28]: > 100 µM | GI50 [29]: 17.2 µM | TGI [29]: 53.7 µM | GI50 [30]: > 59.3 µM | TGI [30]: > 100 µM | GI50 [31]: > 100 µM | TGI [31]: > 100 µM | GI50 [32]: > 75.5 µM | TGI [32]: > 100 µM | GI50 [33]: > 46.6 µM | TGI [33]: > 100 µM | GI50 [34]: 26.6 µM | TGI [34]: > 60.1 µM | GI50 [35]: 42.7 µM | TGI [35]: > 100 µM | GI50 [36]: 36 µM | TGI [36]: > 65.4 µM | GI50 [37]: > 89.3 µM | TGI [37]: > 100 µM | GI50 [38]: > 79.5 µM | TGI [38]: > 100 µM | GI50 [39]: 35.9 µM | TGI [39]: > 78.6 µM | GI50 [40]: 41.3 µM | TGI [40]: > 100 µM | GI50 [41]: > 57.2 µM | TGI [41]: > 100 µM | GI50 [42]: > 100 µM | TGI [42]: > 100 µM | GI50 [43]: 46.3 µM | TGI [43]: > 100 µM | GI50 [44]: 23.8 µM | TGI [44]: > 100 µM | GI50 [45]: > 36.1 µM | TGI [45]: > 62.2 µM | GI50 [46]: 46.6 µM | TGI [46]: > 89.1 µM | GI50 [47]: 48 µM | TGI [47]: > 100 µM | GI50 [48]: > 74.4 µM | TGI [48]: > 100 µM | GI50 [49]: 37.4 µM | TGI [49]: > 82.8 µM | GI50 [50]: > 58.6 µM | TGI [50]: > 100 µM | GI50 [51]: 50.6 µM | TGI [51]: > 100 µM | GI50 [52]: 16.3 µM | TGI [52]: 61.7 µM | GI50 [53]: 59.8 µM | TGI [53]: > 100 µM | GI50 [54]: 41.2 µM | TGI [54]: > 100 µM | GI50 [55]: > 100 µM | TGI [55]: > 100 µM | GI50 [56]: 31.8 µM | TGI [56]: > 100 µM | GI50 [57]: 36.8 µM | TGI [57]: > 100 µM
